Source: patent publication US4757079A, “Anti-hypertensive piperidine compounds” (Dynamac Corporaton, priority 1986, dated 1988)
Structures can show the parent of a compound that is named as a salt.

What was measured:
guinea pig ileum = test: anticholinergic activity on the guinea pig ileum
cat [1] = test: blood pressure and heart rate in the cat (i.v.); assay type: in vivo
[2] = system: peripheral muscarinic receptors; test: response to vagal stimulation or to exogenous acetylcholine in the cat; assay type: in vivo; settings: 1 to 10 mg/kg i.v.
nictitating membrane = test: responsiveness of the nictitating membrane to pre- or post-ganglionic stimulation in the cat; assay type: in vivo; settings: 1 to 10 mg/kg i.v.
neuromuscular function = test: neuromuscular twitch response in the cat; assay type: in vivo
cat [3] = test: heart rate and mean blood pressure in cats pretreated with hexamethonium and atropine; assay type: in vivo; settings: compared with absence of the blocking agents
[4] = system: rat hemidiaphragm preparation; test: rat hemidiaphragm preparation, perfusate volume (vasodilatory effect)

CN1CCC(/C=C/c2cccc3ccccc23)CC1 [B-120, 1-methyl-4-(1-naphthylvinyl)piperidine hydrochloride]
anticholinergic activity (guinea pig ileum): essentially devoid of anticholinergic activity
anticholinergic potency on a relative scale vs atropine sulfate (guinea pig ileum; relative to atropine sulfate): 5.5×10^-4
Heart Rate (cat [1]; 5.0 mg/kg i.v., cat): 90 % Control
Mean Blood Pressure (cat [1]; 5.0 mg/kg i.v., cat): 60 % Control
Pulse Pressure (cat [1]; 5.0 mg/kg i.v., cat): 110 % Control
Heart Rate (cat [1]; 10.0 mg/kg i.v., cat): 80 % Control
Mean Blood Pressure (cat [1]; 10.0 mg/kg i.v., cat): 30 % Control
Pulse Pressure (cat [1]; 10.0 mg/kg i.v., cat): 70 % Control
heart rate rhythm (cat [1]; 50 mg/kg i.v., cat): did not show evidence of abnormal rhythm
Heart Rate (cat [1]; 50.0 mg/kg i.v., cat): 0 % Control
Mean Blood Pressure (cat [1]; 50.0 mg/kg i.v., cat): 0 % Control
Pulse Pressure (cat [1]; 50.0 mg/kg i.v., cat): 0 % Control
Heart Rate (cat [1]; 0.5 to 50 mg/kg i.v., cat): dose-related decrease
Mean Blood Pressure (cat [1]; 0.5 to 50 mg/kg i.v., cat): dose-related decrease
diastolic versus systolic blood pressure (cat [1]; 0.5 to 50 mg/kg i.v., cat): greater decrease in diastolic than systolic blood pressure
death (cat [1]; in vivo): death appeared to be caused by hypotensive crisis
response to exogenous acetylcholine [2]: did not alter the response
response to vagal stimulation [2]: did not alter the response
responsiveness of the nictitating membrane to pre- or post-ganglionic stimulation (nictitating membrane): did not diminish the responsiveness
neuromuscular twitch response (neuromuscular function): no significant decrease
reduction in heart rate (cat [3]): comparable to that induced in the absence of the blocking agents
reduction in mean blood pressure (cat [3]): comparable to that induced in the absence of the blocking agents
increase in perfusate volume ([4]; 17.5 mg/L): not significant
perfusate volume after removal of the B-120 ([4]; after 35 mg/L): returned to normal
